One data set has as its target T1, SUMO E1 ligase protein (Homo sapiens, UniProt Q9UBE0+Q9UBT2).
T1 sequence (Q9UBE0 1-346): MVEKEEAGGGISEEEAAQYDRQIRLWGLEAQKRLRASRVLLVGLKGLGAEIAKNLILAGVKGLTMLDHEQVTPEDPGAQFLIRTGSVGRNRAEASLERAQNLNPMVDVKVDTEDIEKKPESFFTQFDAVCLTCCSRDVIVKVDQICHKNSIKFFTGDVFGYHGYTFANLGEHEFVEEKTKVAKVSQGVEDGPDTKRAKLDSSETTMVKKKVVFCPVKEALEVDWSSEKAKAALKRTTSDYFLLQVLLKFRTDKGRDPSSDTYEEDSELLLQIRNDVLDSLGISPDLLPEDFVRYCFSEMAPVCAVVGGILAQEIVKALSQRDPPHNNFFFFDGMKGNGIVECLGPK
T1 sequence (Q9UBT2 1-640): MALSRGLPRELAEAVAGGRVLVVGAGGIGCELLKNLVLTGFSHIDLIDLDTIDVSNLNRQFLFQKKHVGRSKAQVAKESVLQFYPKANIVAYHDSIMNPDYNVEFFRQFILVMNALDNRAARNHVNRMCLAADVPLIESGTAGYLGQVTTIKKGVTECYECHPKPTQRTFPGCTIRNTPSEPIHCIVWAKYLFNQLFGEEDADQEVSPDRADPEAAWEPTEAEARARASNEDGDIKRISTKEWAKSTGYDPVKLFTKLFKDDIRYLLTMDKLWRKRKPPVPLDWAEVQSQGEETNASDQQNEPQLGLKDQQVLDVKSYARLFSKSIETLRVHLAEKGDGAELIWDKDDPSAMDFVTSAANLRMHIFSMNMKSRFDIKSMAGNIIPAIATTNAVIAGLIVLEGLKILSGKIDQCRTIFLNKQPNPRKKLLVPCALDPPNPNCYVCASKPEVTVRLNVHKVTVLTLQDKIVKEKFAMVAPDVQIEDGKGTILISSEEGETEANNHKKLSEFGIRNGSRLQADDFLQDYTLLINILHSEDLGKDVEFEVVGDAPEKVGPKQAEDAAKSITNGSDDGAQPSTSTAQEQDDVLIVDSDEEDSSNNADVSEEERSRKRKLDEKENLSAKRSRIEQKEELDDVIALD
Briefly: In vitro SUMO E1 ATP hydrolysis assay for SUMO E1 ligase activity (AMP produced, luciferase luminescence). In kind it is biochemical. The conditions noted are these: racemic mixtures; for SUMO E1 activity (luminescence), ranking among the 11 compounds: 1 μM concentration; for dose-dependent effect in SUMO E1 assays compared with control compound N106: luminescence, FIG. 4B. The protocol: (§1) To investigate the effects of carboxamide compounds as SUMOylation activators, the compounds were subjected to an ATP-based assay of SUMO E1 ligase activity. The racemic mixture of each compound was first tested with the SUMO E1 ligase assay to test for SUMO activation activity. Compounds with no SUMO E1 ligase activity were excluded. For compounds with recorded SUMO E1 ligase activity, their four pure stereoisomers were tested for SUMO E1 ligase activity by measuring the adenosine monophosphate (AMP) produced from the E1 ligase reaction as described below. Each pure stereoisomer was also subjected to functional analysis in engineered cardiac tissues (FIG. 3A). The pure stereoisomers of compounds with SUMO E1 ligase activity were administered to human ventricular cardiac tissue strips that had been subjected to a maturation protocol (see below). […] Stereoisomers that could induce SERCA2a SUMOylation were further tested for their inotropic effects, in hvCTS models of cardiomyopathy and heart failure, by fabrication of hvCTS with cardiomyocytes derived from human induced pluripotent stem cells (i.e., hiPSCs) of patients with cardiomyopathy.
Stereoisomers of the test compounds were incubated with SUMO E1 ligase protein and ATP. E1 ligase activation by the test compound was determined by measuring the AMP produced during the enzymatic reaction after removal of the remaining ATP by ATP adenyl cyclase and converting AMP to ADP by polyphosphate-AMP phosphotransferase. The converted ADP was further converted to ATP using […] and detected through luciferase reaction.

Data set [1] concerns human ventricular cardiac tissue strips (hvCTS). Briefly: Contractility of matured human ventricular cardiac tissue strips (hvCTS), twitch force from post deflection. In kind it is cell-based. The conditions noted are these: for effect on developed force: matured hvCTS with positive force frequency relationship, day 24; for effect on developed force / effect on relaxation time: 1.5 Hz, 10 minutes after each dose.
Source text: FIG. 5 discloses the dose-dependent effects of stereoisomers of Compounds 6 on developed force in human cardiac tissue strips that were subjected to maturation protocol (see description below in the section entitled “Maturation of hvCTS”) with maturation media and electrical stimulation of 0.5 Hz from day 7-10, 1.0 Hz from day 10-13, 1.5 Hz from day 13-15, 2.0 Hz from day 16-19, 2.5 Hz from day 19-22 and 3.0 from day 22-24. Contractile data were collected at day 24 post-hvCTS fabrication. Developed forces were measured at 1.5 Hz, 10 minutes after administration of each dose of each stereoisomer. Only hvCTSs with positive force frequency relationships (+FFRs) were tested.
Contractile data were collected at day 24 post-hvCTS fabrication. Developed forces were measured at 1.5 Hz, 10 minutes after administration of each dose of the stereoisomer. Only hvCTSs with positive force frequency relationships (+FFRs) were tested.
as §1
The effects of compounds on cardiac muscle function as evaluated by the Novoheart hvCTS assay are derived from tracings of twitch force versus time. The twitch force may be calculated from measurements of end-post deflection based on a published beam-bending equation as previously described.^29, 30 The twitch force tracings are then analyzed from each “heartbeat” of the tissue, and averaged over multiple beats to extract metrics related to the beat rate frequency and beat rate variability, the passive and active tissue forces, and the contraction and relaxation kinetics, as detailed previously in the field^29-32, and briefly described as follows:
For each beat, the “passive (or diastolic) force” is the minimum value of the twitch force; the “active (or systolic) force” is the maximum value of the twitch force; and the “contractile (or developed) force” is the difference between the systolic and diastolic forces.
“Contractile kinetics”, in some aspects, are analyzed by examining the twitch force tracing during the increase from the diastolic minimum to the systolic maximum portion of the curve, and these can include the duration of rise time from diastolic to systolic force and related metrics (e.g. duration of rise time from 5% maximum to 95% maximum force, and the like), the area under the curve of rise time from minimum to maximum force, the maximum rate of change of force versus time during contraction (max+dF/dt), and other related metrics. […]

The conditions of data set [2]: cited from earlier work.

Entries after “also recorded” stand apart in the source; their conditions may differ.

As to `CC(NC(=O)C1CC(=O)N(c2ccc(C(=O)c3ccccc3)cc2)C1)c1cnn2ccccc12` (mixture of isomers) [Compound 6, 1-(4-benzoylphenyl)-5-oxo-N-(1-(pyrazolo[1,5-a]pyridin-3-yl)ethyl) pyrrolidine-3-carboxamide], at SUMO E1 ligase protein, the “SUMO E1 activity (luminescence), ranking among the 11 compounds” value (from here on “SUMO E1 activity (luminescence)”) is recorded as “largest effects; also recorded: highest” and the “dose-dependent effect in SUMO E1 assays compared with control compound N106” value is given as “larger effects than the control compound N106”.

In the case of `CC(NC(=O)C1CC(=O)N(c2cccnc2)C1)c1cnn2ccccc12` (mixture of isomers) [Compound 9, 5-oxo-N-(1-(pyrazolo[1,5-a]pyridin-3-yl)ethyl)-1-(pyridin-3-yl) pyrrolidine-3-carboxamide], at SUMO E1 ligase protein, the “SUMO E1 activity (luminescence)” value is listed as “largest effects; also recorded: highest” and the “dose-dependent effect in SUMO E1 assays compared with control compound N106” value was “larger effects than the control compound N106”.

Turning to `CC(NC(=O)C1CC(=O)N(c2cnc3ccccc3c2)C1)c1cnn2ccccc12` (mixture of isomers) [Compound 11, 5-oxo-N-(1-(pyrazolo[1,5-a]pyridin-3-yl)ethyl)-1-(quinolin-3-yl) pyrrolidine-3-carboxamide], the “SUMO E1 activity (luminescence)” value on SUMO E1 ligase protein is recorded as “largest effects; also recorded: highest”.

With `C[C@@H](NC(=O)[C@@H]1CC(=O)N(c2ccc(C(=O)c3ccccc3)cc2)C1)c1cnn2ccccc12` [Compound 6-1, 1-(4-benzoylphenyl)-(R)-5-oxo-N—((R)-1-(pyrazolo[1,5-a]pyridin-3-yl)ethyl) pyrrolidine-3-carboxamide], in data set [1] (matured hvCTS), the “concentration at which the increase in developed force peaked” value amounted to 1 µM, the “contractility (overall conclusion)” value is recorded as “improved”, the “effect on contraction time” value was “did not show any significant difference” and the “effect on passive tension” value is “did not show any significant difference”. Moreover, in data set [1] (matured hvCTS), the “effect on relaxation time” value is reported as “did not show any significant difference”. Besides, the “effect on developed force” value in data set [1] is recorded as “positive inotropic effects; also recorded: concentration-dependent increase”.

Turning to `C[C@H](NC(=O)[C@H]1CC(=O)N(c2ccc(C(=O)c3ccccc3)cc2)C1)c1cnn2ccccc12` [Compound 6-2, 1-(4-benzoylphenyl)-(S)-5-oxo-N—((S)-1-(pyrazolo[1,5-a]pyridin-3-yl)ethyl) pyrrolidine-3-carboxamide], in data set [1] (matured hvCTS), the “concentration at which the increase in developed force peaked” value came to 1 µM, the “contractility (overall conclusion)” value is given as “improved”, the “effect on contraction time” value is recorded as “did not show any significant difference” and the “effect on passive tension” value is reported as “did not show any significant difference”. The “effect on relaxation time” value in data set [1] (matured hvCTS) was “did not show any significant difference”. The “effect on developed force” value in data set [1] was “positive inotropic effects; also recorded: concentration-dependent increase”.

Regarding `C[C@@H](NC(=O)[C@@H]1CC(=O)N(c2cccnc2)C1)c1cnn2ccccc12` [Compound 9-1, (R)-5-oxo-N—((R)-1-(pyrazolo[1,5-a]pyridin-3-yl)ethyl)-1-(pyridin-3-yl) pyrrolidine-3-carboxamide], the “effect on relaxation time” value in data set [1] (matured hvCTS) is reported as “decrease in relaxation time that was dose dependent”.

Turning to `C[C@H](NC(=O)[C@H]1CC(=O)N(c2cccnc2)C1)c1cnn2ccccc12` [Compound 9-2, (S)-5-oxo-N—((S)-1-(pyrazolo[1,5-a]pyridin-3-yl)ethyl)-1-(pyridin-3-yl) pyrrolidine-3-carboxamide], the “effect on relaxation time” value in data set [1] (matured hvCTS) is given as “decrease in relaxation time that was dose dependent”.

Consider `C[C@H](NC(=O)[C@@H]1CC(=O)N(c2cccnc2)C1)c1cnn2ccccc12` [Compound 9-3, (R)-5-oxo-N—((S)-1-(pyrazolo[1,5-a]pyridin-3-yl)ethyl)-1-(pyridin-3-yl) pyrrolidine-3-carboxamide], for which, in data set [1] (matured hvCTS), the “contractile kinetics (overall conclusion)” value was “improved” and the “effect on relaxation time” value was “decrease in relaxation time that was dose dependent”. Besides, the “decrease in relaxation time” value in data set [1] (matured hvCTS, at 10 μM) is recorded as 15%.

For `C[C@@H](NC(=O)[C@H]1CC(=O)N(c2cccnc2)C1)c1cnn2ccccc12` [Compound 9-4, (S)-5-oxo-N—((R)-1-(pyrazolo[1,5-a]pyridin-3-yl)ethyl)-1-(pyridin-3-yl) pyrrolidine-3-carboxamide], the inhibition at 1 µM in data set [1] (Homo sapiens, 10 min, matured hvCTS, at 1 μM, read-out: maximum decrease in developed force) is 10%. Besides, in data set [1], the “effect on developed force” value is listed as “small but significant dose-dependent decrease”. The “effect on relaxation time” value in data set [1] (matured hvCTS) is recorded as “decrease in relaxation time that was dose dependent”.

For `COc1ccc(-c2nnc(Nc3nc4c(OC)cccc4s3)o2)cc1` [Compound N106, N-(4-methoxybenzo[d]thiazol-2-yl)-5-(4-methoxyphenyl)-1,3,4-oxadiazol-2-amine], in data set [2], the half-life in vivo result was “too short”.

These data come from patent US20260284019A1, “CARBOXAMIDE COMPOUNDS AS SUMO ACTIVATING COMPOUNDS FOR TREATMENT OF CARDIOVASCULAR DISEASES” (NOVOHEART INTERNATIONAL LIMITED, priority 2023, published 2026).
